Measured values as given in patent US20230355622A1, “METHODS OF CHEMOVACCINATION AGAINST PLASMODIUM INFECTIONS” (Merck Sharp & Dohme LLC, priority 2020, published 2023).

Tested on: parasite
Test: Parasite LDH growth assay (Parasite Assay), antiparasite potency
Type: cell-based
Conditions: 72 h, parasite LDH growth assay, ring stage parasites, 72 hours incubation at 37° C.; read-out: EC50
Procedure: Assessing Antiparasite Potency in a Parasite LDH Growth Assay (Parasite Assay)
The parasite stock was maintained at 4% haematocrit in RPMI-Hepes media buffered with sodium bicarbonate and supplemented with 5% heat inactivated human serum and 0.5% albumax.
On the day of assay set up, a blood smear of the parasite culture was Giemsa stained and counted. The parasitemia was adjusted to 0.7% rings and the haematocrit was diluted to 2% in RPMI-Hepes media buffered with sodium bicarbonate and supplemented with 5% heat inactivated human serum and 0.5% albumax. 30 ul of diluted parasites are then added into 10 ul of media+compound in pre-prepared Greiner TC assay plates. Parasite assay plates were placed in gassed humidified boxes in single layer and allowed to incubate at 37° C. for 72 hours. After 72 hours growth, assay plates are sealed with parafilm and frozen flat, in single file at −80° C. overnight. On the following day, assay plates are allowed to thaw at room temperature for 4 hours to which an LDH assay is performed to measure parasite growth.

Point of comparison: `CCC1(CC)CC(=O)N([C@@H]2C[C@H](OC)c3ccc(C(=O)N[C@@H]4c5ccccc5OC(C)(C)[C@H]4O)cc32)C(=N)N1` [Example 239, (1S,3R)-3-(4,4-diethyl-2-imino-6-oxo-hexahydropyrimidin-1-yl)-N-[(3S,4R)-3-hydroxy-2,2-dimethyl-chroman-4-yl]-1-methoxy-indane-5-carboxamide], EC50 0.9 nM. Against it:
- COC1COc2ccc(C(=O)N[C@@H]3c4ccccc4C[C@H]3O)cc2C1N1C(=N)NC(C)(C)CC1=O (stereo partly drawn) [Example 110, N-[(1R,2R)-2-hydroxyindan-1-yl]-4-(2-imino-4,4-dimethyl-6-oxo-hexahydropyrimidin-1-yl)-3-methoxy-chromane-6-carboxamide] — 67-fold higher, 60 nM
- CCC1(CC)CC(=O)N([C@@H]2CCOc3ccc(C(=O)NC4c5cc(F)ccc5C[C@H]4O)cc32)C(=N)N1 (stereo in doubt) [Example 148, (4R)-4-(4,4-diethyl-2-imino-6-oxo-hexahydropyrimidin-1-yl)-N-[(1R,2R)-6-fluoro-2-hydroxy-indan-1-yl]chromane-6-carboxamide] — 3-fold higher, 2.7 nM
- CCC1(CC)CC(=O)N([C@H]2c3cc(C(=O)N[C@@H]4c5ccccc5OC(C)(C)[C@H]4O)ccc3OC[C@H]2COC)C(=N)N1 [Example 298, (3R,4R)-4-(4,4-diethyl-2-imino-6-oxotetrahydropyrimidin-1(2H)-yl)-N-((3S,4R)-3-hydroxy-2,2-dimethylchroman-4-yl)-3-(methoxymethyl)chromane-6-carboxamide] — 1.8-fold lower, 0.5 nM
- CCC1(CC)CC(=O)N([C@@H]2CCOc3ccc(C(=O)NC(c4ccccc4)c4ccccc4)cc32)C(=N)N1 [Example 194, (4R)-N-benzhydryl-4-(4,4-diethyl-2-imino-6-oxo-hexahydropyrimidin-1-yl)chromane-6-carboxamide] — the same, 0.9 nM
- CC[C@]1(C)CC(=O)N([C@H]2c3cc(C(=O)N[C@@H]4c5ccccc5OC(C)(C)[C@H]4O)ccc3C[C@@H]2C)C(=N)N1 [Example 169, (2S,3R)-3-[(4R)-4-ethyl-2-imino-4-methyl-6-oxo-hexahydropyrimidin-1-yl]-N-[(3S,4R)-3-hydroxy-2,2-dimethyl-chroman-4-yl]-2-methyl-indane-5-carboxamide] — 3-fold lower, 0.3 nM
- CCC1(CC)CC(=O)N(C2c3cc(C(=O)N[C@@H]4c5ccccc5C[C@]4(C)O)ccc3OCC2OC)C(=N)N1 (stereo partly drawn) [Example 213, 4-(4,4-diethyl-2-imino-6-oxo-hexahydropyrimidin-1-yl)-N-[(1R,2S)-2-hydroxy-2-methyl-indan-1-yl]-3-methoxy-chromane-6-carboxamide] — 10-fold higher, 9 nM
- CCC1(CC)CC(=O)N([C@@H]2C[C@@H](OC)c3ccc(C(=O)N[C@@H]4c5ccccc5OC[C@@]4(C)O)cc32)C(=N)N1 [Example 203, (1R,3R)-3-(4,4-diethyl-2-imino-6-oxo-hexahydropyrimidin-1-yl)-N-[(3S,4R)-3-hydroxy-3-methyl-chroman-4-yl]-1-methoxy-indane-5-carboxamide] — 6.6-fold higher, 5.9 nM
- CCC1(CC)CC(=O)N([C@@H]2CCOc3ccc(C(=O)N[C@@H]4c5cc(C#N)ccc5OC(C)(C)[C@H]4O)cc32)C(=N)N1 [Example 20A, (R)-N-((3S,4R)-6-cyano-3-hydroxy-2,2-dimethylchroman-4-yl)-4-(4,4-diethyl-2-imino-6-oxotetrahydropyrimidin-1(2H)-yl)chromane-6-carboxamide] — within 1.5-fold, 0.8 nM
- COC1COc2ccc(C(=O)N[C@@H]3c4ccccc4OC[C@@]3(C)O)cc2C1N1C(=N)NC(C)(C)CC1=O (stereo partly drawn) [Example 186, N-[(3S,4R)-3-hydroxy-3-methyl-chroman-4-yl]-4-(2-imino-4,4-dimethyl-6-oxo-hexahydropyrimidin-1-yl)-3-methoxy-chromane-6-carboxamide] — 78-fold higher, 70 nM
- CCC1(CC)CC(=O)N([C@@H]2CCOc3ccc(C(=O)N[C@H]4CC(C)(C)Oc5ccc(C#N)cc54)cc32)C(=N)N1 [Example 21A, (R)-N-((S)-6-cyano-2,2-dimethylchroman-4-yl)-4-(4,4-diethyl-2-imino-6-oxotetrahydropyrimidin-1(2H)-yl)chromane-6-carboxamide] — within 1.5-fold, 0.8 nM
- CC[C@@]1(C)CC(=O)N([C@@H]2CCOc3ccc(C(=O)N[C@@H]4c5cc(F)ccc5OC(C)(C)[C@H]4O)cc32)C(=N)N1 [Example 225, (4R)-4-[(4S)-4-ethyl-2-imino-4-methyl-6-oxo-hexahydropyrimidin-1-yl]-N-[(3S,4R)-6-fluoro-3-hydroxy-2,2-dimethyl-chroman-4-yl]chromane-6-carboxamide] — within 1.5-fold, 0.8 nM
- CCC1(CC)CC(=O)N([C@@H]2c3cc(C(=O)N[C@@H]4c5ccccc5OC(C)(C)[C@H]4O)ccc3OC[C@@]2(C)OC)C(=N)N1 [Example 295, (3S,4R)-4-(4,4-diethyl-2-imino-6-oxo-hexahydropyrimidin-1-yl)-N-[(3S,4R)-3-hydroxy-2,2-dimethyl-chroman-4-yl]-3-methoxy-3-methyl-chromane-6-carboxamide] — 110-fold higher, 100 nM
- CC[C@]1(C)CC(=O)N([C@H]2c3cc(C(=O)N[C@@H]4c5ccccc5OC(C)(C)[C@H]4O)ccc3C[C@H]2C)C(=N)N1 [Example 168, (2R,3R)-3-[(4R)-4-ethyl-2-imino-4-methyl-6-oxo-hexahydropyrimidin-1-yl]-N-[(3S,4R)-3-hydroxy-2,2-dimethyl-chroman-4-yl]-2-methyl-indane-5-carboxamide] — 2.2-fold lower, 0.4 nM
- CCC1(CC)CC(=O)N([C@H]2c3cc(C(=O)N[C@@H]4c5ccccc5C(F)(F)[C@H]4O)ccc3O[C@@]2(C)COC)C(=N)N1 [Example 290, (2R,3S)-3-(4,4-diethyl-2-imino-6-oxo-hexahydropyrimidin-1-yl)-N-[(1R,2S)-3,3-difluoro-2-hydroxy-indan-1-yl]-2-(methoxymethyl)-2-methyl-3H-benzofuran-5-carboxamide] — 3-fold lower, 0.3 nM
- CCC1(CC)CC(=O)N([C@@H]2CCOc3ccc(C(=O)N[C@H]4CC(C)(C)Oc5ccc(F)cc54)cc32)C(=N)N1 [Example 7A, (R)-4-(4,4-diethyl-2-imino-6-oxotetrahydropyrimidin-1(2H)-yl)-N-((S)-6-fluoro-2,2-dimethylchroman-4-yl)chromane-6-carboxamide] — 2.2-fold lower, 0.4 nM
- CCC1(CC)CC(=O)N([C@H]2c3cc(C(=O)N[C@@H]4c5ccccc5OC(C)(C)[C@H]4O)ccc3OC[C@@H]2COC)C(=N)N1 [Example 299, (3S,4R)-4-(4,4-diethyl-2-imino-6-oxo-hexahydropyrimidin-1-yl)-N-[(3S,4R)-3-hydroxy-2,2-dimethyl-chroman-4-yl]-3-(methoxymethyl)chromane-6-carboxamide] — within 1.5-fold, 0.8 nM
- CCC1C[C@@H](N2C(=N)NC(CC)(CC)CC2=O)c2cc(C(=O)NC3c4ccccc4OC(C)(C)C3O)ccc2O1 (single isomer, unassigned) [Example 13B] — 60-fold higher, 54 nM
- CCC1(CC)CC(=O)N([C@H]2c3cc(C(=O)N[C@@H]4c5ccccc5OC(C)(C)[C@H]4O)ccc3CC[C@@H]2OC)C(=N)N1 [Example 276, (3S,4S)-4-(4,4-diethyl-2-imino-6-oxo-hexahydropyrimidin-1-yl)-N-[(3S,4R)-3-hydroxy-2,2-dimethyl-chroman-4-yl]-3-methoxy-tetralin-6-carboxamide] — 1.5-fold lower, 0.6 nM

Same assay, conditions: parasite LDH growth assay, ring stage parasites, 72 hours incubation at 37° C.; read-out: EC50

Point of comparison: `CC[C@]1(C)CC(=O)N([C@@H]2CCOc3ccc(C(=O)NC4c5c(F)cccc5OCC4(C)O)cc32)C(=N)N1` (stereo partly drawn) [Example 193B, (4R)-4-[(4R)-4-ethyl-2-imino-4-methyl-6-oxo-hexahydropyrimidin-1-yl]-N-(5-fluoro-3-hydroxy-3-methyl-chroman-4-yl)chromane-6-carboxamide], EC50 0.8 nM. Against it:
- CCC1(CC)CC(=O)N([C@@H]2CCOc3ccc(C(=O)NC4c5ccccc5OC(C)(C)C4(C)O)cc32)C(=N)N1 (stereo partly drawn) [Example 242A, (4R)-4-(4,4-diethyl-2-imino-6-oxo-hexahydropyrimidin-1-yl)-N-(3-hydroxy-2,2,3-trimethyl-chroman-4-yl)chromane-6-carboxamide] — within 1.5-fold, 0.6 nM
- CCC1(CC)CC(=O)N([C@@H]2CCOc3ccc(C(=O)NC4c5ccccc5CC4(O)C(F)(F)F)cc32)C(=N)N1 (stereo partly drawn) [Example 272C, (4R)-4-(4,4-diethyl-2-imino-6-oxo-hexahydropyrimidin-1-yl)-N-[2-hydroxy-2-(trifluoromethyl)indan-1-yl]chromane-6-carboxamide] — within 1.5-fold, 0.9 nM
- CCC1(CC)CC(=O)N([C@H]2c3cc(C(=O)N[C@@H]4c5ccccc5C[C@H]4O)ccc3OCC2OC)C(=N)N1 (stereo partly drawn) [Example 72A, (3R,4S)-4-(4,4-diethyl-2-imino-6-oxotetrahydropyrimidin-1(2H)-yl)-N-((1R,2R)-2-hydroxy-2,3-dihydro-1H-inden-1-yl)-3-methoxychromane-6-carboxamide] — 1.6-fold lower, 0.5 nM
- CCC1(CC)CC(=O)N([C@H]2c3cc(C(=O)N[C@@H]4c5ccccc5OC(C)(C)[C@H]4O)ccc3OC2(C)COC)C(=N)N1 (stereo partly drawn) [Example 73A, (2S,3S)-3-(4,4-diethyl-2-imino-6-oxotetrahydropyrimidin-1(2H)-yl)-N-((3S,4R)-3-hydroxy-2,2-dimethylchroman-4-yl)-2-(methoxymethyl)-2-methyl-2,3-dihydrobenzofuran-5-carboxamide] — 2.7-fold lower, 0.3 nM
- CCC1(CC)CC(=O)N([C@@H]2CCOc3ccc(C(=O)NC4c5ccccc5OC4(C)COC)cc32)C(=N)N1 (stereo partly drawn) [Example 64B, (4R)-4-(4,4-diethyl-2-imino-6-oxotetrahydropyrimidin-1(2H)-yl)-N-(2-(methoxymethyl)-2-methyl-2,3-dihydrobenzofuran-3-yl)chromane-6-carboxamide] — within 1.5-fold, 0.9 nM
- CCC1(CC)CC(=O)N([C@@H]2CCOc3ccc(C(=O)NC4c5ccccc5OCC4O)cc32)C(=N)N1 (stereo partly drawn) [Example 8A, (4R)-4-(4,4-diethyl-2-imino-6-oxotetrahydropyrimidin-1(2H)-yl)-N-(3-hydroxychroman-4-yl)chromane-6-carboxamide] — 12-fold higher, 10 nM
